This assay deals with mAb 2C5. Description: Interaction Map (IM) analysis based on SPR traces. It is filed as binding, mouse. The text has this: Pentasaccharide 1 was bound with about 100-fold lower KD values than the minimal glycan epitope 3. This stronger binding may have been due to avidity (re-binding) effects, as 3 is contained twice in 1, or by higher affinity. To address this question, we compared the binding properties by IM analysis based on SPR traces. […] Both antigens interacted with mAb 2C5 in a 1:1-like manner, indicated by one dominant peak in the IM plots. Therefore, stronger antibody binding to 1 was due to increased affinity, not avidity, which would be characterized by differences in off-rates and additional peaks.
Figure 7 IM and thermodynamic analysis of glycan–mAb interactions and conformation of 1. (a) IM analysis. The heat maps represent on- and off-rates of mAb 2C5 to 1 (upper) and 3 (lower). (b) Thermograms acquired using 7 μM of mAb 2C5 and titrating 250 μM of 1 (left) or 3 mM of 3 (right) at 25 °C. Thermodynamic parameters were inferred by nonlinear least-square fits of the data points. (c) Summary of thermodynamic parameters for 1 and 3 interacting with mAbs 2C5 and 10A1. Bars represent mean±s.e.m. of two independent measurements. See Supplementary Fig. 6 for details. (d) One-dimensional proton NMR spectrum, and 2D zTOCSY and NOE spectroscopy (NOESY) NMR spectra of 1 showing the coupled protons to the anomeric protons of the five residues with numbering according to the structure shown in e. […]

In the case of `C[C@@H]1O[C@@H](O[C@@H]2[C@@H](O)[C@H](O[C@H]3[C@H](O[C@@H]4O[C@@H](C)[C@H](O)[C@@H](O)[C@H]4O)[C@@H](O)[C@@H](O[C@H]4[C@@H](OCCCCCN)O[C@H](CO)[C@@H](O)[C@@H]4O)O[C@@H]3CO)O[C@H](CO)[C@H]2O)[C@H](O)[C@H](O)[C@H]1O` [Compound 1], the on-rate is listed as 126,000 M^−1 s^−1. For `C[C@@H]1O[C@@H](O[C@@H]2[C@@H](O)[C@H](OCCCCCN)O[C@H](CO)[C@H]2O)[C@H](O)[C@H](O)[C@H]1O` [Compound 3, Rha-(1→3)-Glc], the on-rate worked out at 250 M⁻¹ s⁻¹.

The values above are taken from publication PMC4838876, “Multivalent display of minimal Clostridium difficile glycan epitopes mimics antigenic properties of larger glycans” (Nature Communications, 2016).
